These are literature values, as cited in US20050131071A1, “Orodispersible pharmaceutical composition of agomelatine” (priority 2003, published 2005).

The conditions of this series: humans; oral route in relation to the parenteral route.

Consider `COc1ccc2cccc(CCNC(C)=O)c2c1` [agomelatine, N-[2-(7-methoxy-1-naphthyl)ethyl]acetamide], for which the “bioavailability by the oral route” value is given as “very low”.
